Test results: patent US20140295012A1, “LATENT HUMAN IMMUNODEFICIENCY VIRUS REACTIVATION” (priority 2011, published 2014)
Several values for one entry are separate records, joined by “and”; a condition that tells them apart may be missing. Equal values may be shown once. *1 amine or outer side, *2 acyl side, *3 side chain or, on linkers, in order; H or OH if unused. Where a SMILES comes first, the peptide text is derived from it. Bridges are numbered along the chain shown (N, C = ends). Roman numbers before positions name the chains, in order. [ ]: non-standard residue; d: D form. Actinocin(9to1) = Cc1c2oc3c(C)ccc(C(=O)[*:1])c3nc-2c(C(=O)[*:2])c(N)c1=O; NMeV = CN[C@H](C(=O)O)C(C)C; Sar = CNCC(=O)O

Key:
Format in all cases: cell-based
[1] = system: latently HIV-1 infected CA5 T cells
[2] = system: latently HIV-2 infected J2574 reporter T cells; experiment: Priming of latent HIV-2 infection in J2574 reporter T cells infected with HIV-2 7312A
Protocol: J2574 reporter T cells were infected with HIV-2 7312A and a latently infected cell population was established (>90% latently infected cells). […] Reactivation levels were determined 24 hours post HRF activation by quantifying the level of GFP-positive cells using flow cytometric analysis.
J2574 reporter T cells were generated by retrovirally transducing Jurkat T cells with a HIV-1 reporter construct (p2574) in which the HIV-1 LTR controls the expression of GFP. The HIV-1 LTR and the GFP gene are separated by a 2,500 base pair (bp) spacer element. Lentiviral particles were produced by transfecting 293T cells with p2574 and supplying gag-pol-rev-tat in trans. VSV-G was used as viral envelope protein. Following lentiviral transduction of Jurkat cells, all cells that spontaneously expressed GFP were removed by cell sorting. The GFP-negative population was then activated with PMA to identify all cells that would harbor an inducible LTR-GFP-LTR integration event. Cells that turned GFP-positive following stimulation were again selected by cell sorting. GFP expression in this population ceased after a few days leaving a population of GFP-negative reporter cells. The amount of founder cells for this population is calculated to represent >50,000 individual integration events.
To determine the ability of dactinomycin to prime a latent HIV-2 infection, a latently HIV-2 infected population of GFP reporter T cells was tested. Briefly, to create the latent HIV-2 infected population, J2574 reporter cells were infected with HIV-2 7312A and a population of latently HIV-2 infected cells was generated by removing the actively infected, GFP-positive cells using a fluorescence activated cell sorter.

[3] = system: latently HIV-1 infected CA5 T cells; remark: listed apart in the source
Protocol: Infection levels in the cell cultures were monitored by flow cytometric analysis of EGFP expression. Flow cytometric analysis was performed on a GUAVA EasyCyte (Millipore; Billerica, Mass.), or a LSRII (Becton & Dickinson; Franklin Lakes, N.J.).
Bacterial growth. Bacteria from various sources were isolated on TSA II agar plates containing 5% sheep blood. Bacterial isolates were then grown in RPMI 1640 medium supplemented with 10% FBS. After two days of incubation at 37° C. bacteria were pelleted and resuspended in RPMI medium to an optical density (OD600) of 8, aliquoted and frozen at −80° C. Unless otherwise indicated, Massilia timonae was grown in RPMI 1640 medium supplemented with 10% FBS. Typically, medium was inoculated with Massilia timonae from frozen stocks to an OD600 of 0.01. After 48 hours at 37° C., the culture was centrifuged at 3200 g to separate bacteria from the culture medium. Bacteria were resuspended in fresh medium to an OD600 of 8 and frozen to be used as references and stock cultures. The supernatant was then centrifuged at 10,000 g for 20 minutes and sterilized by passage through a 0.2 μm PVDF filter with low protein binding ability. HRF activity was determined by its ability to reactivate latent HIV-1 infection in CA5 cells. Only supernatants of which 6 μl reactivated infection in at least 60% of CA5 cells were used to study HRF properties.
Flow cytometry. Infection levels in the cell cultures were monitored by flow cytometric (FCM) analysis of GFP expression. FCM analysis was performed on a GUAVA EasyCyte (GUAVA Technologies, Inc.; Millipore; Billerica, Mass.) and a BD FACSCalibur or a LSRII (Becton & Dickinson; Franklin Lakes, N.J.). Cell sorting experiments were performed using a FACSAria™ Flow Cytometer (Becton&Dickinson). Data analysis was performed using either CellQuest (Becton&Dickinson) or GUAVA Express (GUAVA Technologies, Inc.).
To identify the optimal concentration of dactinomycin, CA5 T cells were pretreated with increasing concentrations of dactinomycin (0.0001 and 1 μg/ml), and then left untreated or stimulated with a sub-optimal concentration of HRF or TNF-α. Representative results for stimulation with HRF are depicted in FIG. 3. The chosen HRF concentration has only minimal HIV-1 reactivating effect by itself (15% reactivation over background). Twenty four hours after activator addition, levels of HIV-1 reactivation were determined as the percentage of GFP-positive cells using flow cytometric analysis, which allowed for the simultaneous determination of cell viability. […] Optimal pretreatment time was 18 hours. Maximum reactivation effects were seen 48 hours after stimulation.

NF-κB p50 and p65 = NF-κB p50 and p65 activity in PBMCs (TransAM NF-κB family ELISA); settings: compared to PHA-L
Protocol: FIGS. 8A-8C show HRF induced NF-κB and cytokine expression in peripheral blood mononuclear cells (PBMCs). […] PBMCs were activated with optimal concentrations of either PHA-L or with HRF. Cells were harvested at the indicated time points. Nuclear extracts were generated and NF-κB p50 activity and NF-κB p65 activity were determined using the TransAM™ NF-κB family ELISA kit (Active Motif). […] PBMCs from four different healthy donors were stimulated with an anti-CD3/CD28 antibody combination and infected with a GFP reporter virus on day 4 post-stimulation. HIV-1 replication was monitored in the absence (C) or presence of HRF for 5 days and the achieved HIV-1 infection levels were determined by flow cytometric analysis for the percentage of EGFP-positive cells. All infections were normalized to the infection level in the untreated culture and the histogram represents the mean infection levels obtained in 4 donor cultures±standard deviation. […] Culture supernatants were collected after 24 hours and the concentrations of a panel of cytokines was determined by BioPlex analysis. […]
NF-κB activity in nuclear extracts was quantified using the TransAM™ NF-κB family ELISA kit from Active Motif, Inc. (Carlsbad, Calif.) according to the manufacturer's instructions.

HIV-1 LTR = experiment: Tat-independent activation of integrated LTR-GFP construct in NOMI reporter T cells; settings: 24 hours
Protocol: FIGS. 6A-6C show HRF triggers suboptimal functional induction of NF-κB dependent gene expression. […] The HIV-1 reactivating kinetics were determined by stimulating CA5 T cells with optimal concentrations of HRF, phorbol 12-myristate 13-acetate (PMA) and tumor necrosis factor-α (TNF-α) and analyzing HIV-1 reactivation as a function of EGFP-expression over a period of 48 hours. Data for all agents are depicted as the percentage of EGFP-positive cells in the total cell population. […] To test the ability of HRF to mediate Tat-independent activation of the HIV-1 LTR, NOMI cells (HIV-1 reporter cell line with an integrated LTR-EGFP construct) were stimulated with increasing concentrations of PMA (0.01-10 ng/ml), TNF-α (0.003-30 μg/ml) and HRF supernatant (0.3-100 μl). The level of LTR-induction was then measured as EGFP-expression detectable after 24 hours as determined by flow cytometric analysis. Arrows indicate the concentrations at which the respective stimulus would have triggered full HIV-1 reactivation in the latently HIV-1 infected CA5 T cell line. […] 293T cells were transfected with several NF-κB dependent promoter constructs and then stimulated with either TNF-α (10 μg/ml) or HRF (25 μl). Promoter induction was measured as total EGFP expression. (NF-κB:pNF-κB-d2EGFP; LTR:HIV-1 LTR-GFP; IL-8:pIL-8 GFP; TNF:human TNF-GFP; MSCV:murine stem cell virus LTR driven GFP; no NF-κB responsive elements).
As the NF-κB pathway has been recognized as vital to HIV-1 activation, the ability of HRF to trigger NF-κB activation was investigated. It was initially determined that HRF had the ability to stimulate Tat independent activation of an integrated LTR-GFP construct in NOMI reporter T cells.

For `Cc1c2oc3c(C)ccc(C(=O)N[C@@H]4C(=O)N[C@H](C(C)C)C(=O)N5CCC[C@H]5C(=O)N(C)CC(=O)N(C)[C@@H](C(C)C)C(=O)O[C@@H]4C)c3nc-2c(C(=O)N[C@@H]2C(=O)N[C@H](C(C)C)C(=O)N3CCC[C@H]3C(=O)N(C)CC(=O)N(C)[C@@H](C(C)C)C(=O)O[C@@H]2C)c(N)c1=O` [dactinomycin] (I: T[dV]P[Sar][NMeV] / II: T[dV]P[Sar][NMeV]; ester I:1-I:C, II:1-II:C; linker I:N-II:N via Actinocin(9to1)), which “priming effects with low concentrations of TNF-α or PMA as reactivating agents” value [1] is on record?
Its value is “Priming effects of dactinomycin were also observed”.

What about the “priming effect for reactivation by TNF-α” value ([1]; CA5 cells, same sense integration, 4 ng/ml, 18 hours pretreatment) of the same molecule?
The value was “exerted its priming effect in each integration scenario”.

And the “concentrations acting as inhibitor of HIV-1 expression and reactivation” value ([1]; observed at the onset of drug toxicities)?
The value was no less than 10 ng/mL.

What about the “concentrations at which a priming effect was observed” value ([1]; pretreatment, then sub-optimal HRF or TNF-α) of the same molecule?
Its value is no less than 0.5 ng/mL.

And the “concentration range that efficiently primed latent HIV-2 infection for reactivation” value ([2]; 18 hours pretreatment, sub-optimal HRF)?
The value was 2 to 8 ng/mL.

And the HIV-2 reactivation levels ([2]; costimulation: dactinomycin pretreatment plus sub-optimal HRF)?
Its HIV-2 reactivation levels is “up to 90%”.

And the “priming effect on HIV-1 reactivation by sub-optimal dose of HRF” value ([3]; CA5 cells pretreated with increasing concentrations)?
Its value is “strong priming effect”.

What about the “concentration of optimal priming activity” value ([3]; pretreatment, then sub-optimal HRF or TNF-α, both T cell lines) of the same molecule?
The value was “about 4 ng/ml and ~3.18 nM”.

B1: HRF: flagellin polypeptide from Massilia timonae (SEQ ID NO:10), used as bacterial culture supernatant (protein)
chain: MASVINTNVPSLNSQRNLSTSQAQLNTSIQRLSSGMRINSAKDDAAGLAISDRMNSQIKGMTQATRNANDGVSMAQTAEGALSSSGDILQRIRELAVQSSNSSNSASDRKALQTEVTQLSSELNRIANTTEFNGQKLMDGTLGTANFQVGANAGQLISMTGANFNTSVYGNNQIAGDAAKAAATTSAAATGAFTISGYLGTSAAINTTDADTAKTIAASINNVTGDTGVTATARTDSFLKSAGGAHTMSLASDNSGTGEAVDISFTVGDGGDTADDYAAAISAFNAQTAKTGVTAEYDAVEKGLKLTNSAGENISLTNKAGSADIDMDTYAADGALMASALTLEAGDVGVANGRVTMDSEKSFSVAEGTDTGFELADSSALKSVAKIDISDFEGAQEAIKVADAALSAVNSQRAEYGALQSRFESAISNLSSSTENLSASRSRIVDTDFAAETAKMTRGQILQQAGTSMLAQANSLPNGVLSLLRG
What does the source list for B1?
NF-κB p50 and p65 activity peak (NF-κB p50 and p65): very high, but short-lived; efficiency of HIV-1 reactivation ([1]; compared with Salmonella typhimurium flagellin): same efficiency as Salmonella typhimurium flagellin; potency of activating latent HIV-1 provirus ([1]; compared with TNFα or PMA): potency comparable to that of TNFα or PMA; HIV-2 reactivation (cells) ([2]; sub-optimal dose of HRF by itself): 10%; Tat-independent activation of integrated LTR-GFP construct (GFP expression) (HIV-1 LTR): modest increase in GFP expression; HIV-1 reactivation over background ([3]; sub-optimal HRF concentration by itself): 15%
